This passage reports IC50 results from patent US12240862B2, “Inhibitors of peptidylarginine deiminases” (Gilead Sciences, Inc., priority 2020, dated 2025).

SMILES strings stand for the structures.

The assay deals with T1, human PAD4 (Homo sapiens, UniProt Q9UM07).
T1 construct: human PAD4 (NM_012387), A2P663, was PCR amplified; His-SUMO (N, cleaved yes); made in house; host or cells: E. coli BL21(DE3)
Description: In vitro PAD4 BAEE biochemical assay. Conditions: human PAD4, BAEE substrate; 5 nM PAD4, 2 mM calcium chloride, 3 mM BAEE; geometric mean of multiple experiments. As to the method: The PCR product was ligated into linearized pET-SUMO vector (Invitrogen, Carlsbad, CA), which is part of the Champion™ pET SUMO Protein Expression System. After sequence verification for the correct orientation, the pET-SUMO-hPAD4 expression plasmid was transformed into BL21(DE3) cells.
E. Coli BL21(DE3) cells were inoculated in LB medium with kanamycin at 37° C. until A600 nm reached about 0.5. Protein expression was induced by addition of 0.5 mM IPTG (final) and continued overnight at 16° C. at 220 rpm.
Cells were harvested by centrifugation at 5000 rpm for 10 minutes at 4° C. The pellet was resuspended in 300 ml lysis buffer (20 mM Tris-HCl, pH 8.0, 1 mM EDTA, 500 mM NaCl, 1 mM (tris(2-carboxyethyl)phosphine) (TCEP), 10% glycerol, and 1% Triton X100 and EDTA free protease inhibitor) and lysed by 3× passage through a microfluidizer (Microfluidics, Newton, MA) at 18,000 psi. The cell lysate was clarified by centrifugation at 30,000 rpm for 60 minutes at 4° C. […] Bound protein was eluted with a 0-100% linear gradient of 100 mL Ni-B buffer (Ni A buffer+0.5 M Imidazole).
The protein was then reloaded onto a Ni—HP column for a reverse purification step and recovered in flow through fraction. The protein with His-Sumo tag removed was then polished using a 16/60 Superdex-200 gel filtration column with gel filtration buffer (20 mM Tris pH 8.0, NaCl 400 mM and 1 mM TCEP). The fractions containing the protein were pulled and frozen at −80° C.
The enzymatic activity of human PAD4 was monitored in a biochemical assay in the presence or absence of compounds using the small peptidyl arginine mimic BAEE (Na-Benzoyl-L-arginine ethyl ester hydrochloride) as substrate. PAD4 activity led to deamination of BAEE and release of ammonia. Levels of ammonia were monitored by using an amine coupling reaction and were indicative of PAD4 enzymatic activity.
One hundred nanoliters of test compounds dissolved in DMSO at various concentrations were dispensed into a 384-well black OptiPlate using a Labcyte Echo instrument. Ten microliters of a solution of recombinant PAD4 and calcium chloride diluted in PAD4 assay buffer (50 mM MOPS [3-(N-morpholino) propanesulfonic acid], pH 7.6; 50 mM sodium chloride; 0.05% Tween-20; 2 mM dithiothreitol) was added to the compound-containing plate and was incubated for 30 minutes at 25° C. Ten microliters of a solution of BAEE (Sigma-Aldrich #B4500) diluted in PAD4 assay buffer was then added to start the reaction. Final concentrations were 5 nM PAD4, 2 mM calcium chloride, and 3 mM BAEE. The reaction mixture was incubated at 25° C. for 2 hours and was stopped with the addition of 10 microliters of a solution of 75 mM EDTA (Ethylenediaminetetraacetic acid) in PAD4 assay buffer. Thirty microliters of detection solution (5 mM o-phthalaldehyde, 50 mM MOPS [3-(N-morpholino) propanesulfonic acid], pH 7.6; 50 mM sodium chloride; 0.05% Tween-20; 5 mM dithiothreitol) was then added and the reaction was incubated for 1 hour at 25° C.

T1 sequence (Q9UM07 2-663): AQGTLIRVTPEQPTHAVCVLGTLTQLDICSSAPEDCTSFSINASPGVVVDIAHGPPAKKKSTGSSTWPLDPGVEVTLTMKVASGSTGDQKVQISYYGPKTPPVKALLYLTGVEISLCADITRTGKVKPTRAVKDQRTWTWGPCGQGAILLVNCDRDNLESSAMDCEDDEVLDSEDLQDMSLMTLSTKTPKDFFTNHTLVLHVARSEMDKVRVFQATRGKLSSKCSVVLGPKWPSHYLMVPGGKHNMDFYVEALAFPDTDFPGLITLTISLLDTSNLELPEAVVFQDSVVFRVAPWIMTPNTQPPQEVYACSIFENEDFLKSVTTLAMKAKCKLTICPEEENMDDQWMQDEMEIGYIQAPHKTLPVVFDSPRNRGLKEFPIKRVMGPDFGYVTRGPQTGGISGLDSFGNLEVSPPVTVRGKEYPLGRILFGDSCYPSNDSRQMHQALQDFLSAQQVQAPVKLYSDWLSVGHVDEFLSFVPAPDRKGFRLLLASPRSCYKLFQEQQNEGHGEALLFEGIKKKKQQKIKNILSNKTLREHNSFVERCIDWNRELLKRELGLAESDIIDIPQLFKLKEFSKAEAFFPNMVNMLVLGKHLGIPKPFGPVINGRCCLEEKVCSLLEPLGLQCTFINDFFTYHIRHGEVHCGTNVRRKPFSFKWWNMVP

Usually IC50 stands for the point on the concentration scale where inhibition reaches its midpoint. As to `COc1cc(C(=O)N2[C@H]3CC[C@@H]2[C@H](N)C3)cc2nc(-c3cc4ccc([C@@H](C)NC(=O)CC5(OC)CCC5)nc4n3CC3CC3)c(C)n12` [Example 32, ~{N}-[(1~{R})-1-[2-[7-[(1~{R},2~{R},4~{S})-2-amino-7-azabicyclo [2.2.1]heptane-7-carbonyl]-5-methoxy-3-methylimidazo[1,2-a]pyridin-2-yl]-1-(cyclopropylmethyl)pyrrolo[2,3-b]pyridin-6-yl]ethyl]-2-(1-methoxycyclobutyl) acetamide], the IC50 stood at 83 nM.

As to `COc1cc(C(=O)N2[C@H]3CC[C@@H]2[C@H](N)C3)cc2nc(-c3cc4ccc([C@@H](C)NC(=O)CC5(OC)CC5)nc4n3CC3CC3)c(C)n12` [Example 33, ~{N}-[(1~{R})-1-[2-[7-[(1~{R},2~{R}, 4~{S})-2-amino-7-azabicyclo[2.2.1]heptane-7-carbonyl]-5-methoxy-3-methylimidazo [1,2-a]pyridin-2-yl]-1-(cyclopropylmethyl)pyrrolo[2,3-b]pyridin-6-yl]ethyl]-2-(1-methoxycyclopropyl) acetamide], the IC50 came out at 69.8 nM.

For `COc1cc(C(=O)N2[C@H]3CC[C@@H]2[C@H](N)C3)cc2nc(-c3cc4ccc([C@@H](C)NC(=O)[C@H](C)OC)nc4n3CC3CC3)c(C)n12` [Example 34, (2~{S})-~{N}-[(1~{R})-1-[2-[7-[(1~{R},2~{R}, 4~{S})-2-amino-7-azabicyclo[2.2.1]heptane-7-carbonyl]-5-methoxy-3-methylimidazo [1,2-a]pyridin-2-yl]-1-(cyclopropylmethyl)pyrrolo[2,3-b]pyridin-6-yl]ethyl]-2-methoxypropanamide], the IC50 worked out at 57.9 nM.

Take `COc1cc(C(=O)N2C[C@H](N)C[C@@H](F)C2)cc2nc(-c3cc4ccc([C@@H](C)NC(=O)C56CC(F)(C5)C6)nc4n3CC3CC3)c(C)n12` [Example 36, ~{N}-[(1~{R})-1-[2-[7-[(3~{R}, 5~{R})-3-amino-5-fluoropiperidine-1-carbonyl]-5-methoxy-3-methylimidazo[1,2-a]pyridin-2-yl]-1-(cyclopropylmethyl)pyrrolo[2,3-b]pyridin-6-yl]ethyl]-3-fluorobicyclo[1.1.1] pentane-1-carboxamide]: the IC50 came out at 369 nM.

In the case of `COc1cc(C(=O)N2CCC[C@@H](N)CC2)cc2nc(-c3cc4ccc([C@@H](C)NC(=O)C56CC(F)(C5)C6)nc4n3CC3CC3)c(C)n12` [Example 38, ~{N}-[(1~{R})-1-[2-[7-[(4~{R})-4-aminoazepane-1-carbonyl]-5-methoxy-3-methylimidazo[1,2-a]pyridin-2-yl]-1-(cyclopropylmethyl)pyrrolo[2,3-b]pyridin-6-yl]ethyl]-3-fluorobicyclo[1.1.1] pentane-1-carboxamide], the half-inhibitory concentration (IC50) was determined as 30600 nM.

`COc1cc(C(=O)N2[C@H]3CC[C@@H]2[C@H](N)C3)cc2nc(-c3cc4ccc([C@@H](C)NC(=O)CC(C)(C)OC)nc4n3CC3CC3)c(C)n12` [Example 39, ~{N}-[(1~{R})-1-[2-[7-[(1~{R},2~{R},4~{S})-2-amino-7-azabicyclo[2.2.1]heptane-7-carbonyl]-5-methoxy-3-methylimidazo[1,2-a]pyridin-2-yl]-1-(cyclopropylmethyl)pyrrolo[2,3-b]pyridin-6-yl]ethyl]-3-methoxy-3-methylbutanamide]: the IC50 was determined as 86.2 nM.

Consider `COc1cc(C(=O)N2[C@H]3CC[C@@H]2[C@H](N)C3)cc2nc(-c3cc4ccc([C@@H](C)NC(=O)[C@@H](C)OC)nc4n3CC3CC3)c(C)n12` [Example 40, (2~{R})-~{N}-[(1~{R})-1-[2-[7-[(1~{R},2~{R},4~{S})-2-amino-7-azabicyclo [2.2.1]heptane-7-carbonyl]-5-methoxy-3-methylimidazo [1,2-a]pyridin-2-yl]-1-(cyclopropylmethyl)pyrrolo[2,3-b]pyridin-6-yl]ethyl]-2-methoxypropanamide], for which the IC50 turned out to be 64.5 nM.

With `COc1cc(C(=O)N2[C@H]3CC[C@@H]2[C@H](N)C3)cc2nc(-c3cc4ccc([C@@H](C)NC(=O)C5(OC)CCC5)nc4n3CC3CC3)c(C)n12` [Example 41, ~{N}-[(1~{R})-1-[2-[7-[(1~{R},2~{R},4~{S})-2-amino-7-azabicyclo [2.2.1]heptane-7-carbonyl]-5-methoxy-3-methylimidazo [1,2-a]pyridin-2-yl]-1-(cyclopropylmethyl)pyrrolo[2,3-b]pyridin-6-yl]ethyl]-1-methoxycyclobutane-1-carboxamide], the IC50 turned out to be 27 nM.

For the compound `COc1cc(C(=O)N2[C@H]3CC[C@@H]2[C@H](N)C3)cc2nc(-c3cc4ccc([C@@H](C)NC(=O)C5(OC)CC5)nc4n3CC3CC3)c(C)n12` [Example 42, ~{N}-[(1~{R})-1-[2-[7-[(1~{R},2~{R},4~{S})-2-amino-7-azabicyclo [2.2.1]heptane-7-carbonyl]-5-methoxy-3-methylimidazo [1,2-a]pyridin-2-yl]-1-(cyclopropylmethyl)pyrrolo[2,3-b]pyridin-6-yl]ethyl]-1-methoxycyclopropane-1-carboxamide], the IC50 worked out at 23.3 nM.

Turning to `COc1cc(C(=O)N2[C@H]3CC[C@@H]2[C@H](N)C3)cc2nc(-c3cc4ccc([C@@H](C)NC(=O)C5CC6(CCC6)C5)nc4n3CC3CC3)c(C)n12` [Example 43, ~{N}-[(1~{R})-1-[2-[7-[(1~{R},2~{R},4~{S})-2-amino-7-azabicyclo[2.2.1]heptane-7-carbonyl]-5-methoxy-3-methylimidazo [1,2-a]pyridin-2-yl]-1-(cyclopropylmethyl)pyrrolo[2,3-b]pyridin-6-yl]ethyl]spiro[3.3]heptane-2-carboxamide], the IC50 was 49.6 nM.

`COc1cc(C(=O)N2[C@H]3CC[C@@H]2[C@H](N)C3)cc2nc(-c3cc4ccc([C@@H](C)NC(=O)C5(C(F)(F)F)CCC5)nc4n3CC3CC3)c(C)n12` [Example 44, ~{N}-[(1~{R})-1-[2-[7-[(1~{R},2~{R},4~{S})-2-amino-7-azabicyclo[2.2.1]heptane-7-carbonyl]-5-methoxy-3-methylimidazo [1,2-a]pyridin-2-yl]-1-(cyclopropylmethyl)pyrrolo[2,3-b]pyridin-6-yl]ethyl]-1-(trifluoromethyl) cyclobutane-1-carboxamide]: the half-maximal inhibitory concentration (IC50) turned out to be 56.1 nM.

Consider `COc1cc(C(=O)N2[C@H]3CC[C@@H]2[C@H](N)C3)cc2nc(-c3cc4ccc([C@@H](C)NC(=O)C5CC(O)(C(F)(F)F)C5)nc4n3CC3CC3)c(C)n12` (some centres unmarked) [Example 45, ~{N}-[(1~{R})-1-[2-[7-[(1~{R},2~{R},4~{S})-2-amino-7-azabicyclo[2.2.1]heptane-7-carbonyl]-5-methoxy-3-methylimidazo [1,2-a]pyridin-2-yl]-1-(cyclopropylmethyl)pyrrolo[2,3-b]pyridin-6-yl]ethyl]-3-hydroxy-3-(trifluoromethyl) cyclobutane-1-carboxamide], for which the IC50 came out at 25.1 nM.

As to `COc1cc(C(=O)N2[C@H]3CC[C@@H]2[C@H](N)C3)cc2nc(-c3cc4ccc([C@@H](C)NC(=O)c5cc(C)nc(Cl)c5)nc4n3CC3CC3)c(C)n12` [Example 46, ~{N}-[(1~{R})-1-[2-[7-[(1~{R},2~{R},4~{S})-2-amino-7-azabicyclo[2.2.1]heptane-7-carbonyl]-5-methoxy-3-methylimidazo [1,2-a]pyridin-2-yl]-1-(cyclopropylmethyl)pyrrolo[2,3-b]pyridin-6-yl]ethyl]-2-chloro-6-methylpyridine-4-carboxamide], the IC50 amounted to 33.4 nM.

As for `COc1cc(C(=O)N2[C@H]3CC[C@@H]2[C@H](N)C3)cc2nc(-c3cc4ccc([C@@H](C)NC(=O)c5ccnc(C)c5)nc4n3CC3CC3)c(C)n12` [Example 47, ~{N}-[(1~{R})-1-[2-[7-[(1~{R},2~{R},4~{S})-2-amino-7-azabicyclo[2.2.1]heptane-7-carbonyl]-5-methoxy-3-methylimidazo [1,2-a]pyridin-2-yl]-1-(cyclopropylmethyl)pyrrolo[2,3-b]pyridin-6-yl]ethyl]-2-methylpyridine-4-carboxamide], the IC50 came out at 24.2 nM.
